# Laboratory results taken from patent publication US20200078379A1, “DEFEROXAMINE DERIVATIVES AS MEDICAMENTS” (BIOTECHNOLOGICKY USTAV AV CR, V.V.I., priority 2017, published 2020).
# Where two headings read alike, the source gives them in different places.
# Key:
# MCF7 cells [1] = assay: crystal violet assay, cellular viability; assay type: cell-based, human
# Protocol: (§1) Compound 1 and compound 2 were tested in their efficacy to kill malignant MCF7 cancer cells. Briefly, 10.000 cells per well were seeded in a 96-well plat on one day and the next day selected compounds were added and incubated with the cells for 48 hrs. The cells were then fixed with 4% paraformaldehyde, stained with 0.05% crystal violet, washed with PBS, and solubilized in 1% SDS. The absorbance of the plate at 595 nm was then measured, quantifying the number of viable cells.
# (§2) A number of compounds of the present invention were tested for cytotoxicity towards at least some of human breast cancer cell lines (MCF7, MDA-MB-231), human fibroblast (BJ) and murine triple negative breast cancer cell line 4T1 (Table 2).
# MDA-MB-231 cells [2] = assay: crystal violet assay, cellular viability; assay type: cell-based, human
# Protocol: as §1, §2
# T47D cells = assay: crystal violet assay, cellular viability; assay type: cell-based; conditions: for IC50: Homo sapiens
# BT474 cells = assay: crystal violet assay, cellular viability; assay type: cell-based; conditions: for IC50: Homo sapiens, BT-474
# [3] = test system: non malignant cells (BJ), human fibroblast; assay: crystal violet assay, cellular viability; assay type: cell-based
# Protocol: as §1, §2
# non malignant cells (BJ) = assay: AnnexinV/PI cell death assay; assay type: cell-based; conditions: for mean percentage of dead cells (AnnexinV/PI): 48 hrs
# Protocol: To confirm such findings by an independent method, cell death-inducing potency (cytotoxic efficacy) of DFO and compound 2 have been tested via annexin V/PI staining commonly used as a measure of apoptotic/necrotic cell death. Briefly, cells were seeded in 12-well plate at 100,000 per well, incubated with the selected compounds for 48 hours, then floating cells were spun, adherent cells trypsinized and spun as well followed by the staining with AnnexinV-FITC and PI probes. Cells were then washed with PBS and measured via Fluorescence Activated Sorter.
# We have then analyzed the percentage of death cells by the annexinV/PI staining as described in example 7. We have observed a significant potentiation in cell death induction when gallium was combined with compound 2 (Table 14)
# MCF7 cells [4] = assay: OCR and ECAR, Seahorse instrument; assay type: cell-based, human; conditions: 1 hour incubation
# From the text: Application of compound 2 leads to marked inhibition of cellular respiration as evidenced by two independent methods: the Oxygraph instrument (Rohlenova, K., Sachaphibulkij, K., Stursa, J., Bezawork-Geleta, A., Blecha, J., Endaya, B., Werner, L., Cerny, J., Zobalova, R., Goodwin, J., Spacek, T., Alizadeh, P. E., Yan, B., Nguyen, M. N., Vondrusova, M., Sobol, M., Jezek, P., Hozak, P., Truksa, J., Rohlena, J., Dong, L. F., & Neuzil, J. (2017) Selective Disruption of Respiratory Supercomplexes as a New Strategy to Suppress Her2high Breast Cancer. Antioxid. Redox. Signal., 26, 84-103) (Table 6) and Seahorse instrument (Table 7). For Seahorse analysis, 20.000 or 30.000 cells were seeded in 96 well plates and incubated with compound 2 for 1 hour. Afterwards, oxygen consumption rate (OCR) and extracellular acidification rate (ECAR) were measured in three cycles of 3 minutes preceded by 3 minutes of mixing, using a Seahorse XFe96 analyzer (Agilent). Results express the mean values of the three cycles.
# MCF7 cells [5] = assay: cellular proliferation, continuous confluence monitoring via Juli FL; assay type: cell-based, human; conditions: for Final confluence: MCF7, 48 hrs
# Protocol: (§3) We also tested the ability of compound 2 to suppress proliferation of cancer cells by an alternative approach via the real time monitoring with a cellular analyser Juli FL. In brief, MCF7 or MDA-MB-231 cells were seeded in a 6-well plate the day before to reach approximately 20% confluence on the following day. Next day, the camera of the instrument was focused on a particular field with approximately 20% confluence and cells were continuously monitored, recording the confluence and visual appearance every 30 minutes for 48 hrs. Values were then expressed either as simple confluence at the end of the experiment or as slope of the line representing the confluence during a given period of time (Table 10). It is clear from the collected data that, in agreement with Xcelligence data, we do see inhibition of proliferation at 1 μM, complete block of proliferation at 2 μM and a cytotoxic effect at 5 μM. The effect is less pronounced in this case as dead cells remain in the monitored field and some are still counted as living cells by the software.
# MDA-MB-231 cells [6] = assay: as above; assay type: cell-based, human; conditions: for Final confluence: MDA-MB-231, 48 hrs
# Protocol: as §3
# [7] = test system: human triple negative breast cancer cells line MDA-MB-231; assay: tumor growth in vivo, MDA-MB-231 model; set-up: species or system NOD-SCID gamma mice; conditions: for Relative tumor size: MDA-MB-231, 8 mg/kg i.p. twice per week
# Protocol: In order to define the effect of compound 2 on tumor growth and progression in vivo, we tested its effect on the model of human triple negative breast cancer cells line MDA-MB-231, NOD-SCID gamma mice being the immunodeficient host. Mice were injected with 1 million of cells s.c. on the right flank. After appearance of tumors (15-60 mm^3) mice were randomized into three separate group, one receiving corn oil (control) and two compound 2 in a dose of 1 mg/kg or 8 mg/kg. Tumor progression was then monitored by ultrasound imaging Vevo770 and mice received the treatment twice per week, i.p. in approximately 100 ul of corn oil.
structure (smiles),measurement,setting,value
"CC(=O)N(O)CCCCCNC(=O)CCC(=O)N(O)CCCCCNC(=O)CCC(=O)N(O)CCCCCN(CCCCCCCCCC[P+](c1ccccc1)(c1ccccc1)c1ccccc1)CCCCCCCCCC[P+](c1ccccc1)(c1ccccc1)c1ccccc1.[Cl-].[Cl-] [Compound 2, Triphenyl(3,14,25-trihydroxy-2,10,13,21,24-pentaoxo-31-(10-(triphenylphosphonio)decyl)-3,9,14,20,25,31-hexaazahentetracontan-41-yl)phosphonium chloride]",Selectivity index (IC50 non-malignant/IC50 malignant),"MCF7 cells [1]; BJ vs MCF7, 48 hours",12.43
same,IC50,"MCF7 cells [1]; Homo sapiens, MCF7, 48 h, crystal violet, read-out: IC50 cellular viability",1.2 µM
same,IC50,"MCF7 cells [1]; Homo sapiens, MCF7, MCF7 Parental, read-out: IC50 crystal violet",1.5 µM
same,viability at 1 µM,"MCF7 cells [1]; Homo sapiens, MCF7, 1 μM, 48 hrs, crystal violet, read-out: mean percentage of viable cells compared to non-treated controls",56.9%
same,viability at 2 µM,"MCF7 cells [1]; Homo sapiens, MCF7, 2 μM, 48 hrs, crystal violet, read-out: mean percentage of viable cells compared to non-treated controls",20%
same,viability at 5 µM,"MCF7 cells [1]; Homo sapiens, MCF7, 5 μM, 48 hrs, crystal violet, read-out: mean percentage of viable cells compared to non-treated controls",10%
same,viability at 10 µM,"MCF7 cells [1]; Homo sapiens, MCF7, 10 μM, 48 hrs, crystal violet, read-out: mean percentage of viable cells compared to non-treated controls",12.1%
same,Selectivity index (IC50 non-malignant/IC50 malignant),"MDA-MB-231 cells [2]; BJ vs MDA-MB-231, 48 hours",2.64
same,IC50,"MDA-MB-231 cells [2]; Homo sapiens, MDA-MB-231, 48 h, read-out: IC50 cellular viability",5.4 µM
same,Selectivity index (IC50 non-malignant/IC50 malignant),"T47D cells; BJ vs T47D, 48 hours",4.77
same,IC50,"T47D cells; T47D Parental, read-out: IC50 crystal violet",3 µM
same,IC50,"T47D cells; T47D, 48 hours, crystal violet, read-out: IC50 cellular viability",3 µM
same,Selectivity index (IC50 non-malignant/IC50 malignant),"BT474 cells; BJ vs BT474, 48 hours",4.33
same,IC50,"BT474 cells; BT474, 48 hours, crystal violet, read-out: IC50 cellular viability",3.3 µM
same,IC50,"BT474 cells; BT474 Parental, read-out: IC50 crystal violet",3.3 µM
same,Selectivity index (IC50 non-malignant/IC50 malignant),[3]; BJ vs BJ (reference),1
same,IC50,"[3]; Homo sapiens, Fibroblast, BJ non malignant, 48 hours, crystal violet",14.3 µM
same,mean percentage of dead cells (AnnexinV/PI),non malignant cells (BJ); 5 μM,6.7%
same,mean percentage of dead cells (AnnexinV/PI),non malignant cells (BJ); 10 μM,9.0%
same,mean percentage of dead cells (AnnexinV/PI),non malignant cells (BJ); 20 μM,29.8%
same,concentrations at which toxic effect could be detected in non-malignant BJ cells,"non malignant cells (BJ); AnnexinV/PI, 48 hours",higher than 2004
same,percentage of death cells by annexinV/PI staining,"non malignant cells (BJ); ratio Ga:compound 2 0:1, 10 μM compound 2 alone",9.0 (3.5)
same,Oxygen consumption rate (OCR),"MCF7 cells [4]; MCF7, 5 μM",15.4 pmol*min^−1 10.000 cells^−1
same,extracellular acidification rate (ECAR),"MCF7 cells [4]; MCF7, 5 μM",9.69 mpH*min^−1 10.000 cells^−1
same,Oxygen consumption rate (OCR),"MCF7 cells [4]; MCF7, 10 μM",9.6 pmol*min^−1 10.000 cells^−1
same,extracellular acidification rate (ECAR),"MCF7 cells [4]; MCF7, 10 μM",8.2 mpH*min^−1 10.000 cells^−1
same,slope of the confluence line,"MCF7 cells [5]; MCF7, 0-22 h, 1 μM",0.655 (0.022)
same,slope of the confluence line,"MCF7 cells [5]; MCF7, 0-22 h, 2 μM",0.324 (0.016)
same,slope of the confluence line,"MCF7 cells [5]; MCF7, 0-22 h, 5 μM",0.317 (0.030)
same,slope of the confluence line,"MCF7 cells [5]; MCF7, 22-48 h, 1 μM",0.510 (0.014)
same,slope of the confluence line,"MCF7 cells [5]; MCF7, 22-48 h, 2 μM",0.104 (0.007)
same,slope of the confluence line,"MCF7 cells [5]; MCF7, 22-48 h, 5 μM",−0.076 (0.010)
same,Final confluence,MCF7 cells [5]; 1 μM,53.15 (4.0)
same,Final confluence,MCF7 cells [5]; 2 μM,32.94 (2.5)
same,Final confluence,MCF7 cells [5]; 5 μM,26.54 (1.9)
same,slope of the confluence line,"MDA-MB-231 cells [6]; MDA-MB-231, 0-22 h, 1 μM",0.786 (0.010)
same,slope of the confluence line,"MDA-MB-231 cells [6]; MDA-MB-231, 0-22 h, 2 μM",0.470 (0.006)
same,slope of the confluence line,"MDA-MB-231 cells [6]; MDA-MB-231, 0-22 h, 5 μM",0.454 (0.014)
same,slope of the confluence line,"MDA-MB-231 cells [6]; MDA-MB-231, 22-48 h, 1 μM",0.934 (0.014)
same,slope of the confluence line,"MDA-MB-231 cells [6]; MDA-MB-231, 22-48 h, 2 μM",0.114 (0.011)
same,slope of the confluence line,"MDA-MB-231 cells [6]; MDA-MB-231, 22-48 h, 5 μM",−0.057 (0.013)
same,Final confluence,MDA-MB-231 cells [6]; 1 μM,65.15 (3.3)
same,Final confluence,MDA-MB-231 cells [6]; 2 μM,46.58 (2.7)
same,Final confluence,MDA-MB-231 cells [6]; 5 μM,25.87 (2.4)
same,"effect on relative tumor growth, in words","[7]; MDA-MB-231, 8 mg/kg",significantly reduces relative tumor growth
same,Relative tumor size,[7]; Day 0,1.0
same,Relative tumor size,[7]; Day 4,1.3
same,Relative tumor size,[7]; Day 7,1.8
same,Relative tumor size,[7]; Day 11,2.6
same,Relative tumor size,[7]; Day 14,3.5
same,Relative tumor size,[7]; Day 18,5.3
same,Relative tumor size,[7]; Day 21,7.9
